# Assay results from patent US20220202811A1, “TREATMENT FOR RETINOIC ACID RECEPTOR-RELATED ORPHAN RECEPTOR Ɣ (RORƔ)-DEPENDENT CANCERS” (The Regents of the University of California, priority 2019, published 2022).
# Assays:
# [1] = tested on: tumor-bearing KP^f/fC mice; test: tumor-bearing KP^f/fC mice in vivo (AZD-0284, JTE-151); set-up: species or system mouse
# Method: Next, the impact of JTE-151 was tested on tumor-bearing KP^f/fC mice in vivo. FIG. 51 is a schematic of the experimental design. KP^f/fC mice were allowed to develop tumors, then the tumor-bearing mice received vehicle or JTE-151, followed by analysis of the tumors at the end of the experiments. Different doses of JTE-151, i.e., at 30 mg/kg, 90 mg/kg, and 120 mg/kg body weight, were tested.
# FIGS. 53-56 show examples of individual experiments where tumor-bearing KP^f/fC mice was treated with either vehicle or 90 mg/kg JTE-151 for 3 weeks in regimens as specified in the figures. For example, in FIGS. 53 and 55, the mice received 90 mg/kg JTE-151 once daily for 3 weeks. In FIG. 54, the mice received 90 mg/kg JTE-151 once daily for 1 week, followed by twice daily for another 2 weeks. At the end of each experiment, tumors were analyzed for different parameters including tumor mass, cell number, EpCAM positivity, CD133 positivity, EpCAM/CD133 positivity, cellularity, and IL-17 level. […] It was not clear whether the initial tumor size of the non-responder mouse was unusually large due to variances between different mice.
# (§1) Similarly, the anti-cancer effect of JTE-151 was tested on tumor-bearing KP^f/fC mice in vivo at a higher dose of 120 mg/kg (FIGS. 59-61 showing three individual experiments). For each experiment, one mouse was given vehicle treatment, and another mouse was given the JTE-151 regimen as specified in the figures. For example, in FIG. 59, the JTE-151 mouse received 120 mg/kg body weight of JTE-151 for 2 weeks and then 90 mg/kg JTE-151 for 1 week. In the first 1.5 weeks, JTE-151 was given once daily, and in the second 1.5 weeks, JTE-151 was given twice daily. As previously, at the end of each experiment, tumors were analyzed for different parameters including cell number, EpCAM positivity, EpCAM/CD133 positivity, and IL-17 level. In each of FIGS. 59-61, the horizontal axis of each graph represents the target (vehicle vs. JTE-151 mouse), and the vertical axis represents the specified measurement.
# [2] = tested on: primary patient-derived PDX202 pancreatic cancer cells; test: PDX202 organoid assay; assay type: cell-based, human; settings: 3 μM JTE-151 alone
# Method: Moreover, the anti-cancer effect of JTE-151 was determined in an organoid assay using pancreatic cancer cells derived from mice bearing primary patient-derived xenografts.
# [3] = tested on: human pancreatic cancer Fast Growing (FG) cells; test: FG organoid assay; assay type: cell-based
# Method: Similarly, the effects of JTE-151 at different doses were examined on human pancreatic cancer Fast Growing (FG) cells using the organoid assay (FIG. 69). Three doses of JTE-151 were tested: 0.3 μM, 1 μM, and 3 μM.
# [4] = tested on: primary patient-derived xenografts; test: compilation of primary patient-derived xenografts, JTE-151; assay type: in vivo, human; settings: JTE-151 vs vehicle, compilation (FIG. 78)
# Text: Finally, the impact of JTE-151 was examined in vivo on mice bearing primary patient-derived pancreatic cancer xenografts (FIGS. 70-78). […] FIGS. 70-72 show 3 rounds of treatment in an experiment using mice bearing PDX1356 xenographs. The horizontal axis of the first panel in each of FIGS. 70-72 represents days of treatment, and the vertical axis represents tumor volume. The horizontal axis of each of the remaining panels represents the target (vehicle vs. JTE-151 mouse), and the vertical axis represents the specified measurement. JTE-151 was given at the regimen as specified in the figures. For example, in the first round (FIG. 70), JTE-151 was given at 90 mg/kg body weight once per day for the first 25 days, then twice per day from day 26 though day 40.
# Two other primary patient-derived xenografts, PDX1535 (FIGS. 74 and 75) and PDX1424 (FIGS. 76 and 77), were tested using JTE-151 at 90 mg/kg once per day. […] Considering the reduced tumor mass and cell numbers, the absence of a significant change in tumor volume may be due to necrotic cells that remained for a while post drug treatment.
# IL-17 = test: circulating IL-17 level in tumor-bearing KP^f/fC mice; assay type: in vivo, mouse; settings: 120 mg/kg JTE-151 regimen, responding mice (FIGS. 59-60)
# Method: as §1, with “As previously, at the end of each experiment, tumors were analyzed for different parameters including cell number, EpCAM positivity, EpCAM/CD133 positivity, and IL-17 level.” left out
# pancreatic cancer cell = test: in vivo tumor growth, antagonists of Table 2; set-up: species or system mouse; settings: extent of growth suppression relative to control
# KP^f/fC tumors = settings: chimeric wild type versus RORγ recipient mice
# [5] = tested on: autochthonous tumor-bearing KP^f/fC mice; test: autochthonous KP^f/fC survival study
# [6] = 90 mg/kg JTE-151, 3 weeks, compilation (FIG. 57)
# [7] = 120 mg/kg JTE-151 regimen, mice that responded
smiles,measurement,setting,value
"Cc1ccc(NC(=O)C[C@H](CCC(=O)O)c2noc([C@H]3C[C@@H](CC(C)(C)C)C3)c2C2CC2)c(Cl)c1 [JTE-151, (4S)-6-[(2-chloro-4-methylphenyl)amino]-4-{4-cyclopropyl-5-[cis-3-(2,2-dimethylpropyl)cyclobutyl]isoxazol-3-yl}-6-oxohexanoic acid]",EpCam+/CD133+ tumor stem cells,[1]; 30 mg/kg JTE-151 once daily for about 3 weeks (FIG. 52),loss
same,mice that did not show a response,[1]; 90 mg/kg JTE-151 (FIG. 56),1 out of 5
same,EpCam+/CD133+ tumor stem cells,[1]; [6],loss
same,tumor mass,[1]; [6],reduced
same,tumor mass,"[1]; 90 mg/kg JTE-151, 3 weeks, individual experiments (FIGS. 53-55)",reduced
same,mice that responded to the drug,[1]; 120 mg/kg JTE-151 regimen (FIGS. 59-61),At least two of the three mice
same,EpCam+ tumor epithelial cells,[1]; [7],loss
same,EpCam+/CD133+ tumor stem cells,[1]; [7],loss
same,EpCam+/CD133+ tumor stem cells,"[1]; JTE-151 at either 30 mg/kg or 90 mg/kg, 3 weeks (FIG. 58)",loss
same,organoid growth,[2],inhibited
same,FG organoid growth,"[3]; JTE-151 (0.3 μM, 1 μM, 3 μM) in combination with 0.05 nM gemcitabine",significant inhibition
same,FG organoid growth,"[3]; JTE-151 alone at 0.3 μM, 1 μM, and 3 μM",significant inhibition
same,EpCam+ tumor epithelial cells,[4],significantly reduced
same,EpCam+/CD133+ tumor stem cells,[4],significantly reduced
same,cell number,[4],significantly reduced
same,tumor mass,[4],significantly reduced
same,circulating IL-17 levels,IL-17,decrease
OC(c1ccc(-c2ccc(CN3CCN(Cc4ccncc4)CC3)cc2)c(F)c1)(C(F)(F)F)C(F)(F)F [SR2211],in vivo tumor growth,pancreatic cancer cell,✓✓ (dose response observed; growth suppressed by less than 4-fold relative to control)
same,"impact on tumor growth, cellularity, and stem cell content",KP^f/fC tumors,equivalent
same,mice alive,[5]; 25 days after the initiation of treatment,75%
same,mice alive,[5]; 45 days after treatment initiation,50%
same,Hazard ratio,[5]; SR2211 vs vehicle,0.16
same,median survival,[5]; treated daily from 8 weeks of age until moribund,38.5 days
same,decreased risk of death,[5]; vs vehicle,6 fold
